Source: patent US4808609A, “Amino-(hydroxy)alkoxy-4-phenylpropyl indoles having antiarrythmic activity” (Roussel Uclaf, priority 1985, dated 1989)

Tests used:
[1] = test system: disturbances of the cardiac rhythm (aconitine); experiment: Anti-arrhythmic activity in the rat (aconitine-induced cardiac rhythm disturbances); type: in vivo
Protocol: Male rats weighing 300-350 g anesthetized intraperitoneally with 1.20 g/kg of urethane were tracheotomized and subjected to artificial respiration (40-50 breaths of 3 ml/minute). Needles were implanted subcutaneously to record the eletrocardiogram of the rats on the derivation signal DII. The products under test were administered intravenously or orally. Five minutes after the administration of the product intravenously or 1 hour after administration orally, the jugular vein of the rats was perfused with 10 μg/min. of an aconitine solution and the time was noted of the appearance of disturbances of the cardiac rhythm (10 μg of aconitine corresponding to the perfusion of a volume of 0.2 ml of solution. The results were expressed as a percentage of the extension of the time of appearance of the cardiac rhythm disturbances as compared to controls and as a function of the dose of the product under test.

[2] = test system: mice; experiment: Study of the acute toxicity (oral, mice); type: in vivo
Protocol: The lethal doses LD0 were evaluated for the different compounds tested after oral administration to mice.

[3] = test system: Caudal arteries of rats; experiment: Anti-calcic activity in vitro (inhibition of K+ depolarization contraction of caudal arteries of rats); type: cell-based; conditions: rat caudal artery spirals, 100 mM K+, Ca2+ 0.1 to 3.0 mM, 37° C.; read-out: IC 50 (inhibits by 50% the contraction due to the K+ ions)
Protocol: Caudal arteries of rats were cut into spirals and attached to tension indicators and were kept in tanks of 25 ml of Krebs buffer-sodium bicarbonate (NaCl: 120.8 mM, KCl: 5.9 mM, MgCl2 : 1.2 mM, NaH2 PO4 : 1.2 mM, NaHCO3 : 15.5 mM, glucose: 12.6 mM) at 37° C. gassed with a mixture of O2 : 95%--CO2 --5%. The preparations were depolarized by a buffer solution with a concentration of 100 mM of K^+ ions (NaCl: 26.7 mM, KCl: 100 mM, MgCl2 1.2 mM, NaH2 PO4 : 1.3 mM, NaHCO3 : 15.5 mM, glucose: 12.6 mM).
250 μl of solutions of calcium chloride were added so that an increasing range of concentrations of Ca^2+ ions going from 0.1 to 3.0 mM was obtained. The contractions of the arteries were recorded and in this way a control range was established. The operation was repeated with the range of Ca^2+ ions every 15 minutes, and the preparation was washed four times after each range. When a stable response was obtained, the operation was carried out with the ranges of Ca^2+ ions in the presence of different concentrations of the product under test until a stable response was obtained.
The contractions of the arteries depend on the entry of the Ca^2+ ions into the cells of the smooth muscles and they are caused by the depolarization of the smooth muscle by the K^+ ions by the action of the noradrenaline liberated at the presynaptic level. By repeating the operation with the arteries denervated by the action of 6-OH dopamine, the action due to the noradrenaline alone is suppressed.
The results are expressed in IC 50 (inhibiting concentration 50) which is the concentration of the product under test which inhibits by 50% the contraction due to the K^+ ions.

[4] = IV, 0.5 mg/kg, aconitine five minutes after administration
[5] = oral, 10 mg/kg, aconitine 1 hour after administration
[6] = IV, 2.5 mg/kg, aconitine five minutes after administration

Row | Compound | % extension of time of appearance of cardiac rhythm disturbances [1, 4] [%] | LD0 (maximum dose which does not cause any mortality in 8 days) [2] [mg/kg] | IC50 [3] [nM] | other results
1 | CC(C)(C)NCC(O)COc1ccccc1C(=O)CCc1cccc2[nH]ccc12 (stereo not shown) [Example 1, (E) butenedioate (1,2) of 1-[2-[3-(1,1-dimethylethylamino)-2-hydroxypropoxy]-phenyl]-3-(1H-indol-4-yl)-1-propanone] | 28 | 100 | 400 | % extension of time of appearance of cardiac rhythm disturbances ([1]; oral, 5 mg/kg, aconitine 1 hour after administration): 41%; % extension of time of appearance of cardiac rhythm disturbances [1, 5]: 39%; % extension of time of appearance of cardiac rhythm disturbances ([1]; oral, 25 mg/kg, aconitine 1 hour after administration): 142%
2 | CCCNCC(O)COc1ccccc1C(=O)CCc1cccc2[nH]ccc12 (stereo not shown) [Example 2, (E) butenedioate (1,2) 1-[2-[2-hydroxy-3-propylamino-propoxy]-phenyl]-3-(1H-indol-4-yl)-1-propanone] | – | 100 | 3800 | % extension of time of appearance of cardiac rhythm disturbances ([1]; IV, 1 mg/kg, aconitine five minutes after administration): 32%
3 | CC(C)(C)NCC(O)COc1ccccc1C(=O)CCc1cccc2c1CC(=O)N2 (stereo not shown) [Example 5, 1,3-dihydro-4-[3-[2-[3-(1,1-dimethylethylamino)-2-hydroxypropoxy]-phenyl]-3-oxo-propyl]-2H-indol-2-one] | 66 | > 400 | – | % extension of time of appearance of cardiac rhythm disturbances [1, 5]: 47%
4 | CCCNCC(O)COc1ccccc1C(=O)CCc1cccc2c1CC(=O)N2 (stereo not shown) [Example 6, 1,3-dihydro-4-[3-oxo-3-[2-(2-hydroxy-3-propylamino-propoxy)-phenyl]-propyl]-2H-indol-2-one] | – | 100 | 3600 | % extension of time of appearance of cardiac rhythm disturbances ([1]; IV, 0.25 mg/kg, aconitine five minutes after administration): 31%
5 | CC(C)(C)NCC(O)COc1ccccc1CCCc1cccc2[nH]ccc12 (stereo not shown) [Example 7, 1-(1,1-dimethylethylamino)-3-[2-[3-(1H-indol-4-yl)-propyl]-phenoxy]-2-propanol] | – | > 400 | 640 | % extension of time of appearance of cardiac rhythm disturbances [1, 6]: 41%
6 | CCCNCC(O)COc1ccccc1CCCc1cccc2[nH]ccc12 (stereo not shown) [Example 8, 1-[2-[3-(1H-indol-4-yl)-propyl]-phenoxy]-3-propylamino-2-propanol] | – | > 400 | 1400 | % extension of time of appearance of cardiac rhythm disturbances [1, 6]: 25.5%
7 | CCCNCC(O)COc1ccccc1CCCc1cccc2c1CC(=O)N2 (stereo not shown) [Example 9, 1,3-dihydro-4-[3-[2-[2-hydroxy-3-propylamino-propoxy]-phenyl]-propyl]-2H-indol-2-one] | 45 | – | – | –
